# Values quoted from earlier work as cited in patent US4405354A, “Elimination of odors from waste material” (priority 1980, dated 1983).
# Like-named read-outs stand apart in the source and are kept apart here.
smiles,measurement,setting,value
N [aqueous ammonia],Kb,0 °C,1.374 × 10^-5
same,Kb,5 °C,1.479 × 10^-5
same,Kb,10 °C,1.570 × 10^-5
same,Kb,15 °C,1.652 × 10^-5
same,Kb,20 °C,1.710 × 10^-5
same,Kb,25 °C,1.774 × 10^-5
same,Kb,30 °C,1.820 × 10^-5
same,Kb,35 °C,1.849 × 10^-5
same,Kb,40 °C,1.862 × 10^-5
same,Kb,45 °C,1.879 × 10^-5
same,Kb,50 °C,1.892 × 10^-5
